The values below come from ChEMBL document CHEMBL3779812, “Synthesis and evaluation of the cytotoxic activity of novel ethyl 4-[4-(4-substitutedpiperidin-1-yl)]benzyl-phenylpyrrolo[1,2-a]quinoxaline-carboxylate derivatives in myeloid and lymphoid leukemia cell lines” (Eur J Med Chem, 2016).

Molecules are shown by their SMILES. pIC50: −log10 of the molar value. Some results are limits rather than exact numbers.

Assay [1] has as its system K562. The experiment in a line: Antiproliferative activity against human K562 cells measured after 3 days by MTS assay. In kind it is functional, cell-based. As to conditions: K562, 72 h.
Assay [2] is described as follows: Antiproliferative activity against human U937 cells measured after 3 days by MTS assay. In kind it is functional, cell-based. As to conditions: U-937, 72 h. (Formazan colour is commonly taken as a measure of viable cells.)
A short description of assay [3]: Antiproliferative activity against human HL60 cells measured after 3 days by MTS assay. In kind it is functional, cell-based. The note with it: HL-60, 72 h.
Assay [4] deals with Jurkat. In words: Antiproliferative activity against human Jurkat cells measured after 3 days by MTS assay. In kind it is functional, cell-based. As to conditions: 72 h.
A short description of assay [5]: Antiproliferative activity against human U266 cells measured after 3 days by MTS assay. As to conditions: U-266, 72 h. It counts as functional, cell-based.
The test system of assay [6] is PBMC. The experiment in a line: Cytotoxicity against PHA induced human PBMC after 3 days by MTS assay. It counts as cell-based. The note with it: 72 h.
The nature of assay [7]: Selectivity index, ratio of IC50 for human PBMC to IC50 for human U937 cells. Set-up: species or system U-937.
Assay [8] is described as follows: Selectivity index, ratio of IC50 for human PBMC to IC50 for human U266 cells. Set-up: species or system U-266.
Assay [9] in a line: Selectivity index, ratio of IC50 for human PBMC to IC50 for human K562 cells.
For assay [10], the system named is K562. The experiment in a line: Induction of apoptosis in human K562 cells at 10 uM measured on day 3 by APC-Annexin-V staining based flow cytometry. In kind it is functional.
The nature of assay [11]: Selectivity index, ratio of IC50 for human PBMC to IC50 for human Jurkat cells.

As to `CCOC(=O)c1cc2c(-c3ccc(CN4CCC(n5c(=O)[nH]c6ccccc65)CC4)cc3)nc3ccccc3n2c1-c1ccccc1`, the pIC50 was 5.07 in assay [1]; under 4.30 in [2]; under 4.30 in [3]; 5.19 in [4]; under 4.30 in assay [5]; under 4.30 in assay [6].

Compound `O=c1[nH]c2ccccc2n1C1CCN(Cc2ccc(-c3nc4ccccc4n4ccc(-c5ccccc5)c34)cc2)CC1` had a pIC50 in [3] of 5.70.

`CCOC(=O)c1cn2c(c(-c3ccc(CN4CCC(c5nnc(-c6ccccn6)[nH]5)CC4)cc3)nc3ccccc32)c1-c1ccccc1`: the pIC50 in assay [1] is 5.15; in assay [2], 5.15; in assay [3], 5.30; in assay [4], 5.70; in assay [5], 5.30; in assay [6], 5.10.

In the case of `O=c1[nH]c2ccccc2n1C1CCN(Cc2ccc(-c3nc4cc5[nH]cnc5cc4nc3-c3ccccc3)cc2)CC1`, the pIC50 in [1] was 4.77; in [2], 5.10; in assay [3], 5.26; in assay [4] it was 5.46; in assay [6], under 4.30.

Take `CCOC(=O)c1cc(-c2ccccc2)n2c1c(-c1ccc(CN3CCC(c4nc5ccc(F)cc5[nH]4)CC3)cc1)nc1ccccc12`: the pIC50 in assay [1] was 5.15; in [2], 5.40; in assay [3], 5.10; in assay [4], 5.22; in assay [5] it was 5.40; in [6], 4.30. Further, the “Ratio IC50” value in assay [7] and in assay [8] was 12.5 throughout.

With `CCOC(=O)c1cc2c(-c3ccc(CN4CCC(c5nc6ccc(F)cc6[nH]5)CC4)cc3)nc3ccccc3n2c1-c1ccccc1`, the pIC50 in [1] is 5.52; in assay [2], 5.52; in assay [3] it was 5.52; in [4], 5.46; in [5], 5.52; in assay [6] it was 4.89.

As for `CCOC(=O)c1cn2c(c(-c3ccc(CN4CCC(n5c(=O)[nH]c6ccccc65)CC4)cc3)nc3ccccc32)c1-c1ccccc1`, the pIC50 is 5.05 in [1]; under 4.30 in [2]; 5.46 in [3]; 5.40 in [4]; 5.00 in assay [5]; 4.38 in assay [6].

As to `O=c1cc(N2CCOCC2)oc2c(-c3ccccc3)cccc12` [LY-294002], the pIC50 in [1] is 4.42; in assay [2], 4.85; in assay [3] it was 4.85; in assay [4] it was 4.66; in [5] it was 4.34; in assay [6], under 4.30.

As for `CCOC(=O)c1c(-c2ccccc2)cn2c1c(-c1ccc(CN3CCC(c4nnc(-c5ccccn5)[nH]4)CC3)cc1)nc1ccccc12`, the pIC50 in [1] was 4.85; in [2] it was 5.15; in assay [3], 4.92; in assay [4] it was 5.30; in [5] it was under 4.30; in [6], 4.80.

For the compound `CCOC(=O)c1cn2c(c(-c3ccc(CN4CCC(c5nc6ccc(F)cc6[nH]5)CC4)cc3)nc3ccccc32)c1-c1ccccc1`, the pIC50 is 5.52 in assay [1]; 5.00 in assay [3]; 5.30 in [4]; 4.74 in [5]; under 4.30 in [6]. Further, the “Ratio IC50” value in [9] is given as over 16.7. In assay [10], this compound had an Activity of 92%.

Regarding `CCOC(=O)c1c(-c2ccccc2)cn2c1c(-c1ccc(CN3CCC(c4nc5ccc(F)cc5[nH]4)CC3)cc1)nc1ccccc12`, the pIC50 was 5.52 in assay [1]; 4.68 in assay [2]; 4.72 in assay [3]; 5.30 in [4]; 5.46 in assay [5]; 4.85 in [6].

On to `CCOC(=O)c1c(-c2ccccc2)cn2c1c(-c1ccc(CN3CCC(n4c(=O)[nH]c5ccccc54)CC3)cc1)nc1ccccc12`, for which the negative logarithm of the IC50 (pIC50) is 5.40 in [1]; under 4.30 in [2]; under 4.30 in assay [3]; 4.39 in assay [4]; under 4.30 in assay [5]; under 4.30 in assay [6]. Besides, in assay [9], the “Ratio IC50” value is over 12.5.

Consider `CCOC(=O)c1cc2c(-c3ccc(CN4CCC(c5nnc(-c6ccccn6)[nH]5)CC4)cc3)nc3ccccc3n2c1-c1ccccc1`, for which the negative-log IC50 (pIC50) in assay [1] is 5.46; in [2] it was 5.10; in assay [3], 5.15; in [4], 5.52; in assay [5], 5.52; in assay [6], 4.92.

For the compound `O=c1[nH]c2ccccc2n1C1CCN(Cc2ccc(-c3nc4ccccc4n4cc5ccccc5c34)cc2)CC1`, the pIC50 in assay [1], in assay [3] and in assay [4] was 5.30 in each case.

On to `CCOC(=O)c1cc(-c2ccccc2)n2c1c(-c1ccc(CN3CCC(n4c(=O)[nH]c5ccccc54)CC3)cc1)nc1ccccc12`, for which the pIC50 was 5.10 in assay [1]; 5.05 in assay [2]; 5.22 in assay [3]; 5.40 in [4]; 5.05 in [5]; under 4.30 in [6]. Besides, the “Ratio IC50” value in assay [11] is listed as over 12.5.

For the compound `CCOC(=O)c1cc(-c2ccccc2)n2c1c(-c1ccc(CN3CCC(c4nnc(-c5ccccn5)[nH]4)CC3)cc1)nc1ccccc12`, the pIC50 is 4.92 in assay [1]; 4.96 in assay [2]; 4.62 in assay [3]; 5.30 in assay [4]; 5.10 in assay [5]; 4.30 in [6].

As for `O=c1[nH]c2ccccc2n1C1CCN(Cc2ccc(-c3nc4ccccc4n4cccc34)cc2)CC1`, the pIC50 in assay [1] was 5.35.

One may read the pIC50 as the IC50 on a negative log10 scale, so that one unit is a factor of ten.
